Patent publication US12594282B2, “Use of small molecule compounds in the treatment of diseases mediated by lung epithelial cell injury and/or vascular endothelial cell injury” (Guangzhou Cellprotek Pharmaceutical Co., Ltd., priority 2020, dated 2026)

How the values were obtained:
[1] = system: Human umbilical vein endothelial cells (HUVEC); test: OGD-R injury model, LDH detection, HUVEC; type: cell-based; details: OGD 4 hours, restoration 24 hours, 1, 3, 10 μM, prophylactic (1 hour before OGD) or therapeutic (at restoration)
Experimental: (§1) HUVEC cells were cultured in modified DMEM medium containing 10% fetal bovine serum. When the cells reached about 80% confluence, the cells were digested with 0.25% trypsin, and then pipetted evenly with modified DMEM containing 10% fetal bovine serum. The cell concentration was adjusted to 1×10^5 cells/mL, and the cells were seeded at 400 uL/well in a 24-well plate, and the experiment was carried out when the cells grew to about 70% confluence. RAOEC cells were cultured in high-glucose DMEM medium containing 10% fetal bovine serum, and the seeding conditions were the same as those for HUVECs.
(§2) The hypoxia workstation was set to have an oxygen concentration of 1% (1% O2, 5% CO2, 94% N2), a temperature of 37° C., and a humidity of 85%. A sugar-free DMEM medium was placed in the hypoxia workstation for pre-hypoxia for 3 hours. The medium in the culture plate was aspirated, and the plate was washed twice with preheated sugar-free DMEM medium, and 100 uL of sugar-free DMEM medium was added to each well. […]
(§3) At the end of the experiment, 50 uL of medium was taken from each well into a 96-well plate, and then cytotoxicity was detected according to the operating instructions of the LDH detection kit. The results were calculated as follows: […]

[2] = system: primary cerebellar granule neuron; test: Intracellular lactate assay in glutamate-stimulated primary cerebellar granule neurons; type: cell-based, mice; details: 10 μM, pre-incubation 20 mins; 200 μM glutamate for 15 mins
Experimental: The cells were obtained from SD P7-8 neonatal mice. The cerebellum was taken, and the meninges and blood vessels were removed using microtweezers; the isolated cerebellar tissue was transferred to another dish containing dissection solution. The tissue was cut into pieces as small as possible using a tissue scissor. Digestion: The tissue in pieces was added into 7 mL of 0.25% trypsin digestive solution with a pipet, and was digested at 37° C. for 15 mins; the bench surface was cleaned and the instruments were washed. The container was turned upside down several times every five minutes to bring the tissue into better contact with the digestive solution. End of digestion: After the digestion, it can be seen that the tissue was sticked together and suspended in the liquid due to cell disruption and release of DNA. The digestion was terminated by adding 3 mL of RNase-containing 10% FBS DMEM medium. […] The cells were counted with a hand-held cell counter, and the seeding density was 4.0-5.0×10^5 cells/mL. […]
Pretreatment: The number of cells used for the determination of intracellular lactate content was 1-2*10^6. […] Centrifugation was performed at 16,000 g for 5 mins at 4° C., 160 μL of supernatant was collected into a new EP tube, and the remaining supernatant was subjected to BCA protein quantification. […]

[3] = system: rat vascular endothelial cells (RAOEC); test: OGD-R injury model, LDH detection, RAOEC; type: cell-based; details: OGD 4 hours, restoration 24 hours, 1, 3, 10 μM, prophylactic (1 hour before OGD) or therapeutic (at restoration)
Experimental: as §1, §2, §3

C[C@@]12CCCC1C1C[C@@H](O)[C@]3(O)C[C@@H](O)CC[C@]3(C)C1CC2 (stereo partly drawn) [YC-6, 5α-androst-3β,5,6β-triol]
OGD-R-induced increase in LDH release [1]: significantly reduced the OGD-R-induced increase in LDH release in a dose-dependent manner | glutamate-induced intracellular accumulation of lactate [2]: significantly inhibited the accumulation of lactate | OGD-R-induced increase in LDH release [3]: significantly reduced the OGD-R-induced increase in LDH release in a dose-dependent manner
